Reference: patent US10822334B2, “ErbB receptor inhibitors” (Dizal (Jiangsu) Pharmaceutical Co., Ltd., priority 2018, dated 2020)
Read-outs that look alike come from different tables or passages of the source.

Assays:
[1] = molecular target: WT EGFR (Homo sapiens (Human), UniProt P00533); test: EGFR (Y1068) phosphorylation in NCI-H838 cells (MSD); assay type: cell-based; details: p-EGFR (Y1068)/total EGFR, 4 h, hEGF stimulation
[2] = system: BT474 cells; test: BT474 anti-proliferation assay (MTS); assay type: cell-based; details: Homo sapiens
Protocol: A compound's activity of selective inhibition for HER2 wild type amplification can be evaluated with BT474 cell line (ATCC® HTB-20™). The cell line expressed phosphorylated HER2 protein and its proliferation depended on the amplified gene, which could be used for in vitro PD and anti-proliferation assays.
The anti-proliferation activity of compounds were determined as following procedure: The BT474 cells were sorted in 384 well plates with the DMEM medium containing 10% FBS and […] overnight and then dosed with tested compounds at a series of concentrations (30 μM, 10 μM, 3 μM, 0.3 μM, 0.1 μM, 0.03 μM, 0.01 μM, 0.001 μM) on next day. Meanwhile, another cells plate was prepared for measuring GO value on next day. The dosed plates were incubate for 72h at 37° C. with 5% CO2 and the number of viable cells in each well of GO or dosed plates were measured by MTS (CellTiter 96® AQueous One Solution Cell Proliferation Assay, Promega) endpoint. This assay is a colorimetric method for determining the number viable cells in the proliferation assay. Detection reagents (5 μl) was dispensed into per well, and the plates were incubated for 2 hrs at room temperature. Then, absorbance at 490 nm and 650 nm (reference wavelength) in each well was measured using the safile II. (Tecan). The percentage of proliferation was got from the formula: % Proliferation=100×(G3 value of sample well-Go value)/(G3 value of DMSO control-Go value). The GI50 values were further calculated as the compounds concentration required for 50% Proliferation in best-fit curves using Genedata Screener® software.

[3] = molecular target: WT HER2 (Homo sapiens (Human), UniProt P04626); test: HER2 (Y1248) phosphorylation in BT474 cells (MSD); assay type: cell-based; details: p-HER2 (Y1248)/total HER2, 4 h, read-out: HER2 WT Amplification BT474 IC50
Protocol: The plates were incubated for 4 h at 37° C. with 5% CO2 and then the HER2 (Y1248) phosphorylation level of cells in each well were measured with MSD Kit (Phospho-ErbB2 ([…]) Assay Whole Cell Lysate Kit: Cat # […]-3). The assay is a electrochemiluminescent method (MESO SCALE DISCOVERY) for determining both phosphorylated and total HER2 of cells with an MSD SECTOR® Imager and then the ratio of p-HER2/total HER2 can be generated by the machine.

[4] = Blood brain barrier penetration assay in rats (short oral absorption model); assay type: in vivo; details: for Kp uu: male, Han Wistar, rat, po
Protocol: In vitro blood, plasma and brain binding assay was carried out with equilibrium dialysis device. Diluted blood (1:1with DPBS pH7.4), EDTA-anticoagulated plasma, and brain homogenate (1:3 with DPBS pH7.4) were spiked with 5 μM test compound (in triplicate) and dialyzed against equal volume of 150 μL 100 mM PBS buffer (pH7.4) at 37° C. for appropriate equilibration time in a slowly rotated plate. At the end of incubation, a 50 μL aliquot from the receiver side and a 5 μL from the donor chamber were taken. The 5 μL sample was further diluted with 45 μL of blank blood, plasma or brain homogenate. Paired samples were matrix-matched with either buffer or blank matrix, and mixed for 2 min, and then precipitated with 150 μL cold acetonitrile with 100 ng/mL tolbutamide as internal standard. After centrifuging at 4000 rpm for 20 min, supernatant was diluted with 0.1% formic acid aqueous solution and analyzed for LC/MS/MS (API 4000, Applied Biosystems, Foster City). Unbound fraction (fu) of test compound were calculated by the ratio of the buffer side response to the brain homogenate/plasma/blood side response, and unbound fraction (fu,bl, fu,pl and fu,br) of test compound in non-diluted blood and tissue were calculated from measured fu in homogenate and diluted blood with the following equation: fu,bl (fu,br)=(1/D)/[(1/fu−1)+1/D)]. D is dilution factor. (D equates 1 for plasma, 2 for blood, and 4 for brain)
A Short oral absorption (SOA) model is an in-vivo screening model to identify brain penetration of a compound. Six male Han Wistar rats purchased from Beijing Vital River were orally dosed with the compound. At predefined time point post-dose, cerebral spinal fluid (CSF) was collected from cisterna magna, and blood samples (>60 μL/time point/each site) were collected via cardiac puncture, into separate EDTA anti-coagulated tubes, and then immediately diluted with 3-fold volume of water for blood samples, or centrifuged at 4000 g for 10 min to obtain plasma. Brain tissue was harvested and homogenized in 3× volume of 100 mM phosphate buffered saline (pH7.4). All samples were stored at ˜−70° C. prior to LC/MS/MS analysis.
Standards were prepared by spiking blank plasma, blood, brain homogenate and artificial CSF. Homogenized brain tissue along with blood/plasma samples were precipitated by adding 3-fold volume of cold acetonitrile containing internal standard, and 10 μL of CSF samples were precipitated with 100 μL of cold acetonitrile containing internal standard. After 2 min vortex and 5 min centrifugation at 14,000 rpm, supernatant was analyzed by LC/MS/MS (API 4000, Applied Biosystems, Foster City). Two sets of standard curves were run at the beginning and end of each batch from blood sample analysis. For brain and CSF samples, one standard curve was analyzed along with test samples.
Total brain levels, expressed as brain/blood ratio (Kp,brain) were measured by AUC(brain)/AUC(blood or plasma) in rodents after oral administration. Similarly, CSF levels represented by a ratio of CSF/blood exposure (Kp,CSF) were determined by AUC(CSF)/AUC(blood or plasma). Free fraction of test compound in biological matrix was determined by in vitro blood and brain binding assay.
Kp,uubrain and Kp,uu CSF was calculated by the following equation: Kp,uu brain=AUC(brain)/AUC(blood or plasma)×(fubrain/fublood/plasma) and Kp,uu CSF=AUC(CSF)/AUC(blood or plasma)×(1/fublood/plasma).

[5] = BT-474, BT474 cells, 72 h, MTS, read-out: HER2 WT Amplification BT474 GI50
[6] = CSF, male Han Wistar rats, oral, AUC(CSF)/AUC(blood or plasma) x 1/fu, read-out: Kp,uu CSF
[7] = brain, male Han Wistar rats, oral, AUC(brain)/AUC(blood or plasma) x fu ratio, read-out: Kp,uu brain

Sequence of WT HER2 (P04626 23-1255): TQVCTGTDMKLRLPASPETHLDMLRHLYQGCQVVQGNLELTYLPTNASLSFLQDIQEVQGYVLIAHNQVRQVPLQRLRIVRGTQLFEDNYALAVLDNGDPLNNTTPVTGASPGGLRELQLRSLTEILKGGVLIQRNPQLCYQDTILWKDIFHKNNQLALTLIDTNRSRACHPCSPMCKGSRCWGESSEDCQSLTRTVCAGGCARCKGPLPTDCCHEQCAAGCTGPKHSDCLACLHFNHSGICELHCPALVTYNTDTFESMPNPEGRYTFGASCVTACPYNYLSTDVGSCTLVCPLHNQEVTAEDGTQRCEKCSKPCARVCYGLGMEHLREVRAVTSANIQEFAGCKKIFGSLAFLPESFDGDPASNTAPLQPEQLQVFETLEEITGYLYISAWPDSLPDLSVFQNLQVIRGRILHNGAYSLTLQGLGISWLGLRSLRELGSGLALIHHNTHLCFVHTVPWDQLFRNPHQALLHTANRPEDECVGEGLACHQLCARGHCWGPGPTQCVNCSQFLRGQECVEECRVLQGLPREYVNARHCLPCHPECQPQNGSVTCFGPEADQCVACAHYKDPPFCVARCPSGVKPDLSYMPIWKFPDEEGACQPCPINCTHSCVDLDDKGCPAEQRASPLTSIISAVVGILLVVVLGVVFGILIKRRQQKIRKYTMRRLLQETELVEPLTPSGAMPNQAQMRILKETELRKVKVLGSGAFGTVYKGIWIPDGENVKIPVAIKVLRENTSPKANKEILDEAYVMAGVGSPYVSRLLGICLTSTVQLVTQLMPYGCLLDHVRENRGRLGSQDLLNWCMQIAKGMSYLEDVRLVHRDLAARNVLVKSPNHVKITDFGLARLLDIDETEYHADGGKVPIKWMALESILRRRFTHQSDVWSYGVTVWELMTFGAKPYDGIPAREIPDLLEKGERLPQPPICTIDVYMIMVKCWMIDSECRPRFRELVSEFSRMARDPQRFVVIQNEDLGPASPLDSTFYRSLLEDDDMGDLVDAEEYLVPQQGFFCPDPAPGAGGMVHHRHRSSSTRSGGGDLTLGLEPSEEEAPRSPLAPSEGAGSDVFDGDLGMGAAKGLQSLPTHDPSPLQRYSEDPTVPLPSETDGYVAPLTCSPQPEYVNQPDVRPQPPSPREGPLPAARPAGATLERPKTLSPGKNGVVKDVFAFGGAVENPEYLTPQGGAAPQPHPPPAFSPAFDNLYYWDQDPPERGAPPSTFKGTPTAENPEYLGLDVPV
Sequence of WT EGFR (P00533 25-1210): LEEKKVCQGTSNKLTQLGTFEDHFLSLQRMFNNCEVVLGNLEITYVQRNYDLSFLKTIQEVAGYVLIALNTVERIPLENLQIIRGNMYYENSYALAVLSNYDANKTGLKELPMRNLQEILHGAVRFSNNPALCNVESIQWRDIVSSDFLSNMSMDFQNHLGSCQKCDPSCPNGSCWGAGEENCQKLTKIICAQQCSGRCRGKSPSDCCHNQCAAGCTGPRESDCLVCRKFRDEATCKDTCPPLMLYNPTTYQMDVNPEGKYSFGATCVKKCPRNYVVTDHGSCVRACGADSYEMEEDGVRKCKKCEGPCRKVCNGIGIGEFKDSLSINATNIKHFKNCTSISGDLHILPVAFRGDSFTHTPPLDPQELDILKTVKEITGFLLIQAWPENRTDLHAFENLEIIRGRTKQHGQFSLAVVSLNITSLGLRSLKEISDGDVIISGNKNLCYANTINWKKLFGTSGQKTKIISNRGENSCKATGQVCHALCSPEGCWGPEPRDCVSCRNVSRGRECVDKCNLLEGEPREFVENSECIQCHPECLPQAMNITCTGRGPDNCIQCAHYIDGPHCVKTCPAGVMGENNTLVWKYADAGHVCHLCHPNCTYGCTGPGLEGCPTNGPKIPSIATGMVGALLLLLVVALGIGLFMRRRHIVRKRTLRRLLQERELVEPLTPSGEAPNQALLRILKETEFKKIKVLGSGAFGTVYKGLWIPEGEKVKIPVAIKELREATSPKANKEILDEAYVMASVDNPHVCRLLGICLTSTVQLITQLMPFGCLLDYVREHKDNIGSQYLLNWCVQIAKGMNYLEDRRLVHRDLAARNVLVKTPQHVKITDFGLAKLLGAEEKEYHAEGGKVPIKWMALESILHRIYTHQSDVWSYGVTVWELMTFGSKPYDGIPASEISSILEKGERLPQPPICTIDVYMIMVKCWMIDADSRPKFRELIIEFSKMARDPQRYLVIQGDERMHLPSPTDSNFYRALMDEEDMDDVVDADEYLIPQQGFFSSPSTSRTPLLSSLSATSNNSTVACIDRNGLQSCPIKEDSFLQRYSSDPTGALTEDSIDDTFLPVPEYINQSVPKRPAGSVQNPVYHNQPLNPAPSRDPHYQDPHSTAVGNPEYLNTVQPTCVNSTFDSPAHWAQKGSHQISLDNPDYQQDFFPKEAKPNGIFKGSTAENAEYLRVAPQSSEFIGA

| SMILES | IC50 [1] [µM] | GI50 [2, 5] [nM] | IC50 [3] [nM] | Kp uu [4, 6] | Kp uu [4, 7] | Kp uu ([4]; in vivo, Kp,uu CSF) | Kp uu ([4]; in vivo, Kp,uu brain) | GI50 ([2]; BT-474, 72 h, read-out: HER2 WT Amplification BT474 GI50 (nM)) [nM] | Kp,uu CSF ([4]; male Han Wistar rats, oral, AUC(CSF)/AUC(blood or plasma) x 1/fu) | Kp,uu brain ([4]; male Han Wistar rats, oral, AUC(brain)/AUC(blood or plasma) x fu ratio) |
| --- | --- | --- | --- | --- | --- | --- | --- | --- | --- | --- |
| [2H]C([2H])([2H])N1CC[C@H](Oc2cccc3ncnc(Nc4ccc(Oc5ccn6ncnc6c5)c(C)c4)c23)C[C@@H]1C(F)(F)F (racemic) [Compound 25, (±)-N-(4-([1,2,4]triazolo[1,5-a]pyridin-7-yloxy)-3-methylphenyl)-5-(((2R,4S)-1-(methyl-d3)-2-(trifluoromethyl)piperidin-4-yl)oxy)quinazolin-4-amine] | > 10 | 47.2 | 16.8 | 1.92 | 0.11 | – | – | – | – | – |
| [2H]C1(Oc2cc(OC)cc3ncnc(Nc4ccc(Oc5ccn6ncnc6c5)c(C)c4)c23)CCN(C)CC1(F)F (racemic) [Compound 27, (±)-N-(4-([1,2,4]triazolo[1,5-a]pyridin-7-yloxy)-3-methylphenyl)-5-((3,3-difluoro-1-methylpiperidin-4-yl-4-d)oxy)-7-methoxyquinazolin-4-amine] | 5.13 | 22.1 | 10.3 | 0.52 | 0.1 | – | – | – | – | – |
| Cc1cc(Nc2ncnc3cccc(OC4CCN(C)CC4(F)F)c23)ccc1Oc1ccn2ncnc2c1 (single isomer, unassigned) [Compound 1, N-(4-([1,2,4]triazolo[1,5-a]pyridin-7-yloxy)-3-methylphenyl)-5-((3,3-difluoro-1-methylpiperidin-4-yl)oxy)quinazolin-4-amine] | > 3 | 24.2 ± 24 | 6.86 | 1.44 | 0.23 | – | – | – | – | – |
| COc1cc(O[C@H]2CCN(C)CC2(F)F)c2c(Nc3ccc(Oc4ccn5ncnc5c4)c(C)c3)ncnc2c1 (single isomer, unassigned) [Compound 6] | 3.29 ± 1.35 | 18.7 ± 9.16 | 19.6 ± 8.76 | 0.56 | 0.18 | – | – | – | – | – |
| COc1cc(OC2CCN(C)CC2(F)F)c2c(Nc3cc(C)c(Oc4ccn5ncnc5c4)cc3F)ncnc2c1 (single isomer, unassigned) [Compound 14] | 1.39 | 26.8 ± 11.5 | 19.7 | 0.24 | 0.04 | – | – | – | – | – |
| Cc1cc(Nc2ncnc3cc(F)cc(OC4CCN(C)CC4(F)F)c23)ccc1Oc1ccn2ncnc2c1 (single isomer, unassigned) [Compound 17] | > 3 | 126 ± 9.01 | 44 | 1.02 | 0.07 | – | – | – | – | – |
| Cc1cc(Nc2ncnc3cccc(OC4CC(C)N(C)CC4(F)F)c23)ccc1Oc1ccn2ncnc2c1 (single isomer, unassigned) [Compound 19] | > 10 | 11.5 | 9.56 ± 3.13 | 0.4 | 0.1 | – | – | – | – | – |
| [2H]C([2H])([2H])N1CCC(Oc2cccc3ncnc(Nc4ccc(Oc5ccn6ncnc6c5)c(C)c4)c23)C(F)(F)C1 (single isomer, unassigned) [Compound 24, N-(4-([1,2,4]triazolo[1,5-a]pyridin-7-yloxy)-3-methylphenyl)-5-((3,3-difluoro-1-(methyl-d3)piperidin-4-yl)oxy)quinazolin-4-amine] | > 10 | 50.8 | 9.38 | 1.44 | 0.23 | – | – | – | – | – |
| [2H]C([2H])([2H])N1CCC([2H])(Oc2cc(OC)cc3ncnc(Nc4ccc(Oc5ccn6ncnc6c5)c(C)c4)c23)C(F)(F)C1 (single isomer, unassigned) [Compound 28] | 5.22 | 35.8 | 22.4 | 0.52 | 0.11 | – | – | – | – | – |
| COc1cc(O[C@H]2CCNCC2(F)F)c2c(Nc3ccc(Oc4ccn5ncnc5c4)c(C)c3)ncnc2c1 [Compound 16, (S)-N-(4-([1,2,4]triazolo[1,5-a]pyridin-7-yloxy)-3-methylphenyl)-5-((3,3-difluoropiperidin-4-yl)oxy)-7-methoxyquinazolin-4-amine] | 3.06 ± 0.0803 | 14.3 ± 13.6 | 10.6 ± 2.4 | 0.11 | 0.03 | – | – | – | – | – |
| Cc1cc(Nc2ncnc3cccc(O[C@@H]4C[C@H]5CC[C@@H](C4)N5C)c23)ccc1Oc1ccn2ncnc2c1 [Compound 20, N-(4-([1,2,4]triazolo[1,5-a]pyridin-7-yloxy)-3-methylphenyl)-5-(((1R,3s,5S)-8-methyl-8-azabicyclo[3.2.1]octan-3-yl)oxy)quinazolin-4-amine] | > 10 | 41 ± 1.55 | 12.6 | – | – | 0.07 | 0.08 | – | – | – |
| CCOc1cc2ncc(C#N)c(Nc3ccc(OCc4ccccn4)c(Cl)c3)c2cc1NC(=O)/C=C/CN(C)C [Neratinib, reference compound] | – | – | – | – | – | – | – | 0.71 ± 0.08 | AUC(CSF) below | AUC(brain) below |
